Experimental findings from patent US9644039B2, “Acid-degradable and bioerodible modified polyhydroxylated materials” (The Regents of the University of California, priority 2008, dated 2017) are described below.

One test relates to B16 tumor. The test can be described thus: Chemotherapy of subcutaneous B16 tumor with DOX particles. The test is classed as in vivo, mice. To be noted: injected after 3 days. The procedure: To determine the maximum in vivo tolerated dose for the particles, a varying concentration of doses of 0 (PBS), 20, 40, and 60 mg/kg DOX equivalents are injected intravenously. The weights and general health of the mice are monitored until the ninth day after injection. Based on weight loss, the maximum injection of particles tolerated in mice is calculated. Once determined, mice are implanted subcutaneously with a B16 tumor. After 3 days mice are injected with PBS, free DOX, Ac-DEX particles encapsulating DOX, pegylated-Ac-DEX particles, or Doxcil (a commercially available doxorubicin/liposome conjugate). Mice are monitored for tumor growth. Once the tumor reaches an average diameter of 1.5 cm, the mice are sacrificed.

A further test deals with RAW macrophages. The test can be described thus: B3Z / LacZ MHC Class I antigen presentation assay. It counts as cell-based. Conditions: APCs incubated with free or encapsulated ovalbumin. As for the experimental part: The LacZ MHC Class I antigen presentation assay, as described by Sanderson, S.; Shastri, N. in Inter. Immun. 1994, 6, 369-376, is performed with degradable polymer particles made according to Example 3 with the modified hydroxylated polymers of Example 2 to test their ability to deliver proteins into APCs for Class I antigen presentation. This experiment uses the LacZ B3Z hybridoma, which is a CTL that recognizes the peptide sequence, […] (SEQ ID NO: 8), from ovalbumin, complexed with the MHC Class I molecule H-2K^b. This hybridoma produces β-galactosidase after encountering APCs that present […] as a Class I antigen, thus allowing Class I antigen presentation to be quantified by measuring β-galactosidase activity.
In order to assess the feasibility of using Ac-DEX based materials for vaccine applications, OVA-loaded Ac-DEX particles were incubated with RAW macrophages. […] 1×10^4 RAW macrophages were seeded overnight in a 96 well plate and subsequently incubated with OVA-containing Ac-DEX particles or free OVA. […] After six hours of incubation, Ac-DEX particles increased MHC class I presentation of the OVA-derived CD8^+ T-cell epitope, […], by a factor of 16 relative to free OVA (FIG. 15) measured by the B3Z assay (Karttunen, J.; Shastri, N., Proc. Natl. Acad. Sci. U.S.A. 1991, 88, 3972-6).

The test system of another test is MO5 tumor cells. The test can be described thus: Tumor prophylactic vaccination, MO5 tumor challenge. To be noted: immunized subcutaneously day 0, 200,000 MO5 tumor cells day 7. It counts as in vivo, Mice. As for the experimental part: In one embodiment, Ac-DEX particles will encapsulate OVA similar to (Example 9 with B3Z assay) and be used in a tumor prophylactic and treatment vaccination against cancer. MO5 is a B16 tumor cell line that expresses OVA (Falo et al. 1995, Targeting antigen into the phagocytic pathway in vivo induces protective tumour immunity. Nat Med 1:649-53). Mice are immunized subcutaneously with 2 mg of Ac-DEX particles with a 2.5 wt % loading of OVA (50 μg of OVA) in the left flank on day 0. Other groups include mice which are injected with either OVA, saline, or Ac-DEX particles encapsulating OVA and an immunostimulatory CpG stimulant. We have shown earlier that adding CpG with acid labile particles drastically increases the efficacy of treatment(Standley et al. 2007, Incorporation of CpG oligonucleotide ligand into protein-loaded particle vaccines promotes antigen-specific CD8 T-cell immunity. Bioconjug Chem 18:77-83). CpG can be either co-injected with the particles, or it can be encapsulated inside the particles. […]
After injection, the tumor growth is monitored by measuring two perpendicular axes using calipers. Tumor volume is then calculated using the equation, volume=[…], with the length being the longest diameter and the width being the shortest diameter of the two perpendicular measurements. […]

With `COc1cccc2c1C(=O)c1c(O)c3c(c(O)c1C2=O)C[C@@](O)(C(=O)CO)C[C@@H]3O[C@H]1C[C@H](N)[C@H](O)[C@H](C)O1` [free Dox, doxorubicin], the “tumor growth (order of groups)” value in the test on B16 tumor is “fastest tumor growth followed by, free Dox, Ac-DEX particles, Doxcil and finally PEGylated Ac-DEX particles”. “free ovalbumin: ovalbumin, model protein antigen, not encapsulated”: in the test with RAW macrophages, the “activation of CTLs (Class I antigen presentation)” value is reported as “not able to activate CTLs”. Besides, the “tumor onset, tumor growth and survival time” value with MO5 tumor cells was “fastest tumor onset and tumor growth”.
